Positions of bridges follow the written chain, without caps; N, C: chain ends. Non-standard residues stand in square brackets, D forms with d. Residues, ends and D or L forms follow the SMILES beside them. Bip = N[C@@H](Cc1ccc(-c2ccccc2)cc1)C(=O)O; Hyp = O=C(O)[C@@H]1C[C@@H](O)CN1; Nle = CCCC[C@H](N)C(=O)O; Orn = NCCC[C@H](N)C(=O)O; Aib = CC(C)(N)C(=O)O
Tests used:
[1] = tested on: rat paclitaxel-induced chronic chemotherapy pain model; assay: Rat paclitaxel chemotherapy pain model, same dose (Example 5); type: in vivo; conditions: for analgesic activity compared with the model group (mechanical pain threshold) / ranking among the five candidate modified peptides / analgesic activity (mechanical pain threshold): 1 mg/kg s.c.; for analgesic activity compared with the model group (mechanical pain threshold): four rounds of treatment; for analgesic activity (mechanical pain threshold): day 12, 7 h after dosing; for analgesic efficacy compared with the positive control pregabalin: peptide 1 mg/kg s.c. vs pregabalin 30 mg/kg oral gavage, overall
Protocol: Male SPF (Specific Pathogen Free) SD rats weighing 180-200 g (Shanghai Institute of Planned Parenthood Research, Experimental Animal Department) were used. On the day of model induction, rats were weighed, and baseline mechanical pain thresholds were measured. Animals with large differences in body weight or pain threshold were excluded, and the remaining rats were subjected to the experimental protocol. Paclitaxel powder was dissolved in olive oil to 1 mg/mL. Each rat received an intraperitoneal injection of 2 mg/kg per dose. Four injections were administered on days 1, 3, 5, and 7. Rats in the negative control or vehicle control group received injections of the solvent used to dissolve paclitaxel. […] The blank group in Table 4 represents rats without pain modeling, and the model group represents rats with pain modeling but no drug treatment. On days 1, 3, 5, and 12, drugs were administered at fixed times. On days 1, 3, and 5, mechanical pain thresholds of the right hind paw at the corresponding time were measured at 1 h, 2.5 h, 4 h, and 5.5 h after dosing using a blunt probe. On day 12, mechanical pain thresholds were measured at 4 h and 7 h after dosing. […] AJ003-36 and AJ003-40 were thus identified as candidate molecules for further study. Paclitaxel is a widely used small-molecule chemotherapy drug that, while effective against tumors, can induce neuropathic pain in many cancer patients due to neurotoxicity. The chronic chemotherapy pain model induced in male SD rats via multiple low-dose intraperitoneal injections of paclitaxel simulates clinical chemotherapy-induced neuropathic pain. Using this model, the analgesic effects of five modified peptides, the parent peptide AJ003, and the positive control pregabalin were evaluated. […] Table 4 Dosing Scheme for Screening Analgesic Activity of Selected Modified Peptides at the Same Dose in the Paclitaxel Chemotherapy Pain Model

[2] = tested on: rat paclitaxel-induced chronic chemotherapy pain model; assay: Rat paclitaxel chemotherapy pain model, different doses (Example 6); type: in vivo; conditions: for analgesic activity compared with the model group (mechanical pain threshold): 1 mg/kg s.c., five rounds of treatment; for analgesic activity compared with the positive control pregabalin: high dose 1.5 mg/kg s.c. vs pregabalin 30 mg/kg oral gavage; for analgesic effect compared with the model group (mechanical pain threshold): high dose 1.5 mg/kg s.c., 8 h after dosing; for analgesic activity compared with the parent peptide AJ003: low dose 0.5 mg/kg s.c. vs AJ003 1 mg/kg s.c.
Protocol: Male SPF (Specific Pathogen Free) SD rats weighing 180-200 g (Shanghai Institute of Planned Parenthood Research, Experimental Animal Department) were purchased and allowed to acclimate for approximately one week. On the day of model induction, rats were weighed, and baseline mechanical pain thresholds were measured. Animals with large differences in body weight or pain threshold were excluded, and the remaining rats were subjected to the experimental protocol. Paclitaxel powder was dissolved in olive oil to 1 mg/mL. Each rat received an intraperitoneal injection of 2 mg/kg per dose. Four injections were administered on days 1, 3, 5, and 7. Rats in the negative control or vehicle control group received injections of the solvent used to dissolve paclitaxel. […] Starting from day 15 after model induction, drugs were administered daily for consecutive days. On days 1, 4, 7, 12, and 14 of treatment, mechanical pain thresholds of the right hind paw at the corresponding time were measured at 2 h, 4 h, 6 h, and 8 h after dosing using a blunt probe. […]. […] Table 5 Dosing Scheme for Screening Analgesic Activity of Selected Modified Peptides at Different Doses in the Paclitaxel Chemotherapy Pain Model

α7 nAChR = α7 nAChR (Homo sapiens, UniProt P36544); assay: BLI (biolayer interferometry) affinity of peptides to α7 nAChR; type: binding; parameters: inferred from the 'similar' procedure on NTA sensors; conditions: NTA sensor, α7 nAChR 20 µg/mL, peptide 1.372-1000 nM in PBS
In short: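 Target protein immobilised on NTA biosensors from PBS at 5 µg/mL (α9) or 20 µg/mL (α7). Peptides run in PBS as threefold series from 1000 nM to 1.372 nM with a PBS blank, 5-minute association and 5-minute dissociation; KD from fitted ka and kd.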

Compound	analgesic activity compared with the model group (mechanical pain threshold) ([1]; beyond 4 h after dosing)	analgesic activity compared with the model group (mechanical pain threshold) ([1]; within 4 h after dosing)	analgesic activity compared with the model group (mechanical pain threshold) ([2]; beyond 4 h after dosing)	analgesic activity compared with the model group (mechanical pain threshold) ([2]; within 4 h after dosing)	Kd (α7 nAChR)	ranking among the five candidate modified peptides [1]	analgesic activity (mechanical pain threshold) [1]	analgesic efficacy compared with the positive control pregabalin [1]	analgesic activity compared with the positive control pregabalin [2]	analgesic effect compared with the model group (mechanical pain threshold) [2]	analgesic activity compared with the parent peptide AJ003 [2]
CC(C)C[C@H](NC(=O)[C@@H](NC(=O)[C@H]1CSSC[C@H](NC(=O)[C@H](CO)NC(=O)CN)C(=O)N[C@@H](CO)C(=O)N[C@@H]([C@@H](C)O)C(=O)N2CCC[C@H]2C(=O)N2CCC[C@H]2C(=O)N[C@@H](CO)C(=O)N1)C(C)C)C(=O)N[C@@H](Cc1ccc(O)cc1)C(=O)N[C@@H](CO)C(=O)O [AJ003, GSCSTPPS-(D-Cys)-VLYS (disulfide bond between positions 3 and 9)] (H-GSCSTPPS[dC]VLYS-OH; disulfide 3-9)	no significant analgesic effect	significant analgesic activity	no significant effect	significant analgesic activity	223 nM						
CCCC[C@H](NC(=O)[C@@H](NC(=O)[C@H]1CSSC[C@H](NC(=O)[C@H](CO)NC(=O)CN)C(=O)N[C@@H](CO)C(=O)N[C@H]([C@H](C)O)C(=O)N2C[C@H](O)C[C@H]2C(=O)N2C[C@H](O)C[C@H]2C(=O)NC(C)(C)C(=O)N1)C(C)C)C(=O)N[C@@H](Cc1ccc(-c2ccccc2)cc1)C(=O)N[C@@H](CCCN)C(N)=O [AJ003-36, GSCS-(D-Thr)-Hyp-Hyp-Aib-(D-Cys)-V-Nle-Bip-Orn-NH2 (3,9 disulfide bond)] (H-GSCS[dT][Hyp][Hyp][Aib][dC]V[Nle][Bip][Orn]-NH2; disulfide 3-9)					40.8 nM	top three analgesic candidates	prolonged analgesic activity lasting up to 7 h	comparable in analgesic efficacy to pregabalin	slightly superior to the positive control pregabalin	remained significant	comparable to that of AJ003 at 1 mg/kg
CCCC[C@H](NC(=O)[C@@H](NC(=O)[C@H]1CSSC[C@H](NC(=O)[C@H](CO)NC(=O)CN)C(=O)N[C@@H](CO)C(=O)N[C@H]([C@H](C)O)C(=O)N2C[C@H](O)C[C@H]2C(=O)N2C[C@H](O)C[C@H]2C(=O)N[C@@H](CO)C(=O)N1)C(C)C)C(=O)N[C@@H](Cc1c[nH]c2ccccc12)C(=O)N[C@@H](CCCN)C(N)=O [AJ003-40, GSCS-(D-Thr)-Hyp-Hyp-S-(D-Cys)-V-Nle-W-Orn-NH2 (3,9 disulfide bond)] (H-GSCS[dT][Hyp][Hyp]S[dC]V[Nle]W[Orn]-NH2; disulfide 3-9)					46.5 nM	top three analgesic candidates	prolonged analgesic activity lasting up to 7 h	comparable in analgesic efficacy to pregabalin	slightly superior to the positive control pregabalin	remained significant	comparable to that of AJ003 at 1 mg/kg
